Assay results reported in patent publication US9642831B2, “Substituted chromanes and method of use” (AbbVie S.á.r.l., priority 2014, dated 2017).

Target: F508delCFTR (Homo sapiens, UniProt P13569, DEL508-508)
Assay: Cell Surface Expression-Horse Radish Peroxidase (CSE-HRP) assay
Assay type: cell-based
Parameters: expressed in transfected cells; host or cells: CFBE41o- human lung derived epithelial cell line, doxycycline-inducible
Settings: CFBE4lo-F508delCFTR-HRP cells; for EC50: 18-24 hours at 33° C., 8-point curve, highest concentration 20 μM, luminescence readout; for Emax / Maximum % activity (%): maximum % activity at any tested concentration, normalized to on-plate positive control (3 μM Example 1)
Procedure, shortened: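 Following 18-24 h compound exposure at 33° C. Expression was doxycycline-induced beforehand. % activity versus DMSO and a 3 μM corrector control gave maximum activity and EC50 from a variable-Hill sigmoidal fit.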

F508delCFTR, sequence (P13569 with tags, fused parts or gaps DEL508-508): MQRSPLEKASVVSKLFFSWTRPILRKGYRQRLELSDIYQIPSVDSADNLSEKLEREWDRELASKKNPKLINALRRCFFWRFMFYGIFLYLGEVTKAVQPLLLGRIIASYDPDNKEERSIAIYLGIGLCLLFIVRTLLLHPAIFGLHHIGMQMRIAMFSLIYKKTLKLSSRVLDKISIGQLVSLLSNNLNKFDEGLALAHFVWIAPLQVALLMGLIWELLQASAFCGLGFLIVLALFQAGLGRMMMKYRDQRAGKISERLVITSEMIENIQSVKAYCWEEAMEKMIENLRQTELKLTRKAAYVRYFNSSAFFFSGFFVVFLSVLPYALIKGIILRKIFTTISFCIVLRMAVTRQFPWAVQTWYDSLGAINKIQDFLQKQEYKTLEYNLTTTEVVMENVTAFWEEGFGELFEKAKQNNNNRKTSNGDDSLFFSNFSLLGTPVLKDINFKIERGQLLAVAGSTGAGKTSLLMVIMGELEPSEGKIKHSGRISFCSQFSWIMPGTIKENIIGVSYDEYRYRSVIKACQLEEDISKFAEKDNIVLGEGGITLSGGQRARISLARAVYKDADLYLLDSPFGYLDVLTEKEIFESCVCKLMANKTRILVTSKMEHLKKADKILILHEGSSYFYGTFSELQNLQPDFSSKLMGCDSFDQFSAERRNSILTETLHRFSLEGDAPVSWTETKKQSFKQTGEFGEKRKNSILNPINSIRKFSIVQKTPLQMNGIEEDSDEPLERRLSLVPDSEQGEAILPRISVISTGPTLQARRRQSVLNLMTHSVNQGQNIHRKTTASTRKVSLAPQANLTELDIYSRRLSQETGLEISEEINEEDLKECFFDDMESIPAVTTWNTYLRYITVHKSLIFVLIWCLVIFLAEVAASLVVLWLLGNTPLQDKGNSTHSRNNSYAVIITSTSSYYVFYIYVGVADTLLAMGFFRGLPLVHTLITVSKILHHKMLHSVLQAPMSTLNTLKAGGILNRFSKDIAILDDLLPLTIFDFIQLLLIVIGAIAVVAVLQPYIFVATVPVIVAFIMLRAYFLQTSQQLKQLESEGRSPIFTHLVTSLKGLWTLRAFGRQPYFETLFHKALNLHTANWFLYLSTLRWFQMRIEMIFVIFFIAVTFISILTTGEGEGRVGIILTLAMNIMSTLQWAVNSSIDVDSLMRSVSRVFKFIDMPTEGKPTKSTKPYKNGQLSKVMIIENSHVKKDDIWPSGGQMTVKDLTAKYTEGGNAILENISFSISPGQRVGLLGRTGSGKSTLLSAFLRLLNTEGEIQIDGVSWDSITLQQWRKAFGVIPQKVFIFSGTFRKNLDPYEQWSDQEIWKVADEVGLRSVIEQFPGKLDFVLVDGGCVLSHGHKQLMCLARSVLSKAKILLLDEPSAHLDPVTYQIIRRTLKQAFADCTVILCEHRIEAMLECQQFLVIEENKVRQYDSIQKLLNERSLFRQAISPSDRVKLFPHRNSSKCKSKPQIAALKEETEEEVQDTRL

| EC50 | Emax | Maximum % activity (%) | Compound |
| --- | --- | --- | --- |
| 90 nM | 123% | – | COc1ccc2c(c1)O[C@@H](c1ccc(C(=O)O)cn1)C[C@H]2NC(=O)C1(c2ccc3c(c2)OC(F)(F)O3)CC1 (relative stereo) [Example 165, rel-6-[(2R,4R)-4-({[1-(2,2-difluoro-1,3-benzodioxol-5-yl)cyclopropyl]carbonyl}amino)-7-methoxy-3,4-dihydro-2H-chromen-2-yl]pyridine-3-carboxylic acid] |
| 8500 nM | 27% | – | O=C(O)c1csc([C@@H]2C[C@H](NC(=O)C3(c4ccc5c(c4)OC(F)(F)O5)CC3)c3ccccc3O2)n1 (stereo in doubt) [Example 143, rel-2-[(2S,4S)-4-({[1-(2,2-difluoro-1,3-benzodioxol-5-yl)cyclopropyl]carbonyl}amino)-3,4-dihydro-2H-chromen-2-yl]-1,3-thiazole-4-carboxylic acid] |
| 2450 nM | 96% | – | O=C(O)c1csc([C@H]2C[C@@H](NC(=O)C3(c4ccc5c(c4)OC(F)(F)O5)CC3)c3ccccc3O2)n1 (stereo in doubt) [Example 145, rel-2-[(2R,4R)-4-({[1-(2,2-difluoro-1,3-benzodioxol-5-yl)cyclopropyl]carbonyl}amino)-3,4-dihydro-2H-chromen-2-yl]-1,3-thiazole-4-carboxylic acid] |
| 370 nM | 108% | – | CCOC(=O)c1csc([C@H]2C[C@@H](NC(=O)C3(c4ccc5c(c4)OC(F)(F)O5)CC3)c3ccc(OC)cc3O2)n1 (stereo in doubt) [Example 155, ethyl rel-2-[(2R,4R)-4-({[1-(2,2-difluoro-1,3-benzodioxol-5-yl)cyclopropyl]carbonyl}amino)-7-methoxy-3,4-dihydro-2H-chromen-2-yl]-1,3-thiazole-4-carboxylate] |
| 1230 nM | 112% | – | COc1ccc2c(c1)O[C@@H](c1nc(C(=O)O)cs1)C[C@H]2NC(=O)C1(c2ccc3c(c2)OC(F)(F)O3)CC1 (stereo in doubt) [Example 156, rel-2-[(2R,4R)-4-({[1-(2,2-difluoro-1,3-benzodioxol-5-yl)cyclopropyl]carbonyl}amino)-7-methoxy-3,4-dihydro-2H-chromen-2-yl]-1,3-thiazole-4-carboxylic acid] |
| 1520 nM | 77% | – | CCOC(=O)c1csc([C@@H]2C[C@H](NC(=O)C3(c4ccc5c(c4)OC(F)(F)O5)CC3)c3ccc(OC)cc3O2)n1 (stereo in doubt) [Example 157, ethyl rel-2-[(2S,4S)-4-({[1-(2,2-difluoro-1,3-benzodioxol-5-yl)cyclopropyl]carbonyl}amino)-7-methoxy-3,4-dihydro-2H-chromen-2-yl]-1,3-thiazole-4-carboxylate] |
| 6650 nM | 101% | – | COc1ccc2c(c1)O[C@H](c1nc(C(=O)O)cs1)C[C@@H]2NC(=O)C1(c2ccc3c(c2)OC(F)(F)O3)CC1 (stereo in doubt) [Example 158, rel-2-[(2S,4S)-4-({[1-(2,2-difluoro-1,3-benzodioxol-5-yl)cyclopropyl]carbonyl}amino)-7-methoxy-3,4-dihydro-2H-chromen-2-yl]-1,3-thiazole-4-carboxylic acid] |
| 2710 nM | 122% | – | COc1ccc2c(c1)O[C@@H](c1cccc(C(=O)O)c1)C[C@@H]2NC(=O)C1(c2ccc3c(c2)OC(F)(F)O3)CC1 [Example 2, 3-[(2R,4S)-4-({[1-(2,2-difluoro-1,3-benzodioxol-5-yl)cyclopropyl]carbonyl}amino)-7-methoxy-3,4-dihydro-2H-chromen-2-yl]benzoic acid] |

The remaining lines, values behind:

| Compound | EC50 | Emax | Maximum % activity (%) |
| --- | --- | --- | --- |
| O=C(O)c1cnc(C2CC(NC(=O)C3(c4ccc5c(c4)OC(F)(F)O5)CC3)c3ccccc3O2)s1 (single isomer, unassigned) [Example 133] | 7020 nM | – | 25% |
| O=C(O)c1cnc(C2CC(NC(=O)C3(c4ccc5c(c4)OC(F)(F)O5)CC3)c3ccccc3O2)s1 (single isomer, unassigned) [Example 136] | 3360 nM | – | 90% |
| CCOC(=O)c1cccc([C@@H]2C[C@H](NC(=O)C3(c4ccc5c(c4)OC(F)(F)O5)CC3)c3ccncc3O2)c1 (stereo in doubt) [Example 24, ethyl rel-3-[(2S,4S)-4-({[1-(2,2-difluoro-1,3-benzodioxol-5-yl)cyclopropyl]carbonyl}amino)-3,4-dihydro-2H-pyrano[2,3-c]pyridin-2-yl]benzoate] | 8370 nM | 63% | – |
| CCOC(=O)c1cccc([C@H]2C[C@@H](NC(=O)C3(c4ccc5c(c4)OC(F)(F)O5)CC3)c3ccncc3O2)c1 (stereo in doubt) [Example 25, ethyl rel-3-[(2R,4R)-4-({[1-(2,2-difluoro-1,3-benzodioxol-5-yl)cyclopropyl]carbonyl}amino)-3,4-dihydro-2H-pyrano[2,3-c]pyridin-2-yl]benzoate] | 3910 nM | 41% | – |
| CCOC(=O)c1cnc([C@@H]2C[C@H](NC(=O)C3(c4ccc5c(c4)OC(F)(F)O5)CC3)c3ccccc3O2)s1 (stereo in doubt) [Example 132, ethyl rel-2-[(2S,4S)-4-({[1-(2,2-difluoro-1,3-benzodioxol-5-yl)cyclopropyl]carbonyl}amino)-3,4-dihydro-2H-chromen-2-yl]-1,3-thiazole-5-carboxylate] | 3440 nM | 86% | – |
| CCOC(=O)c1cnc([C@H]2C[C@@H](NC(=O)C3(c4ccc5c(c4)OC(F)(F)O5)CC3)c3ccccc3O2)s1 (stereo in doubt) [Example 135, ethyl rel-2-[(2R,4R)-4-({[1-(2,2-difluoro-1,3-benzodioxol-5-yl)cyclopropyl]carbonyl}amino)-3,4-dihydro-2H-chromen-2-yl]-1,3-thiazole-5-carboxylate] | 1510 nM | 97% | – |
| CCOC(=O)c1csc([C@@H]2C[C@H](NC(=O)C3(c4ccc5c(c4)OC(F)(F)O5)CC3)c3ccccc3O2)n1 (stereo in doubt) [Example 140, ethyl rel-2-[(2S,4S)-4-({[1-(2,2-difluoro-1,3-benzodioxol-5-yl)cyclopropyl]carbonyl}amino)-3,4-dihydro-2H-chromen-2-yl]-1,3-thiazole-4-carboxylate] | 2280 nM | 53% | – |
| CCOC(=O)c1csc([C@H]2C[C@@H](NC(=O)C3(c4ccc5c(c4)OC(F)(F)O5)CC3)c3ccccc3O2)n1 (stereo in doubt) [Example 142, ethyl rel-2-[(2R,4R)-4-({[1-(2,2-difluoro-1,3-benzodioxol-5-yl)cyclopropyl]carbonyl}amino)-3,4-dihydro-2H-chromen-2-yl]-1,3-thiazole-4-carboxylate] | 1180 nM | 87% | – |
| COC(=O)c1ccc([C@H]2C[C@H](NC(=O)C3(c4ccc5c(c4)OC(F)(F)O5)CC3)c3ccc(OC)cc3O2)nc1 (stereo in doubt) [Example 159, methyl rel-6-[(2R,4S)-4-({[1-(2,2-difluoro-1,3-benzodioxol-5-yl)cyclopropyl]carbonyl}amino)-7-methoxy-3,4-dihydro-2H-chromen-2-yl]pyridine-3-carboxylate] | 1360 nM | 92% | – |
| COC(=O)c1ccc([C@@H]2C[C@@H](NC(=O)C3(c4ccc5c(c4)OC(F)(F)O5)CC3)c3ccc(OC)cc3O2)nc1 (stereo in doubt) [Example 160, methyl rel-6-[(2S,4R)-4-({[1-(2,2-difluoro-1,3-benzodioxol-5-yl)cyclopropyl]carbonyl}amino)-7-methoxy-3,4-dihydro-2H-chromen-2-yl]pyridine-3-carboxylate] | 600 nM | 104% | – |
| COC(=O)c1ccc([C@@H]2C[C@H](NC(=O)C3(c4ccc5c(c4)OC(F)(F)O5)CC3)c3ccc(OC)cc3O2)nc1 (stereo in doubt) [Example 161, methyl rel-6-[(2S,4S)-4-({[1-(2,2-difluoro-1,3-benzodioxol-5-yl)cyclopropyl]carbonyl}amino)-7-methoxy-3,4-dihydro-2H-chromen-2-yl]pyridine-3-carboxylate] | 2260 nM | 82% | – |
| COC(=O)c1ccc([C@H]2C[C@@H](NC(=O)C3(c4ccc5c(c4)OC(F)(F)O5)CC3)c3ccc(OC)cc3O2)nc1 (stereo in doubt) [Example 162, methyl rel-6-[(2R,4R)-4-({[1-(2,2-difluoro-1,3-benzodioxol-5-yl)cyclopropyl]carbonyl}amino)-7-methoxy-3,4-dihydro-2H-chromen-2-yl]pyridine-3-carboxylate] | 170 nM | 105% | – |
| COc1ccc2c(c1)O[C@H](c1ccc(OC)c(OC)c1)C[C@@H]2NC(=O)C1(c2ccc3c(c2)OC(F)(F)O3)CC1 [Example 4, 1-(2,2-difluoro-1,3-benzodioxol-5-yl)-N-[(2S,4S)-2-(3,4-dimethoxyphenyl)-7-methoxy-3,4-dihydro-2H-chromen-4-yl]cyclopropanecarboxamide] | 1190 nM | 73% | – |
| COC(=O)c1cccc([C@H]2C[C@H](NC(=O)C3(c4ccc5c(c4)OC(F)(F)O5)CC3)c3ccc(OC)cc3O2)c1 [Example 5, methyl 3-[(2R,4S)-4-({[1-(2,2-difluoro-1,3-benzodioxol-5-yl)cyclopropyl]carbonyl}amino)-7-methoxy-3,4-dihydro-2H-chromen-2-yl]benzoate] | 2450 nM | 92% | – |
| COC(=O)c1cccc([C@H]2C[C@@H](NC(=O)C3(c4ccc5c(c4)OC(F)(F)O5)CC3)c3ccc(OC)cc3O2)c1 [Example 6, methyl 3-[(2R,4R)-4-({[1-(2,2-difluoro-1,3-benzodioxol-5-yl)cyclopropyl]carbonyl}amino)-7-methoxy-3,4-dihydro-2H-chromen-2-yl]benzoate] | 380 nM | 120% | – |
